{
  "source": "patent US20120046232A1",
  "about": "“COMPOSITIONS AND METHODS FOR REDUCING RELAPSE OF ADDICTIVE BEHAVIOR” (Medical University of South Carolina, priority 2010, published 2012)",
  "key": {"mGluR2/3 [1]": {"system": "mGluR2/3", "conditions": "intra-accumbens infusion, microdialysis probes; cited from earlier work"}, "[2]": {"conditions": "cited from earlier work"}, "[3]": {"conditions": "cited from earlier work", "remark": "listed apart in the source"}, "[4]": {"conditions": "cited from earlier work", "remark": "listed apart in the source"}, "XC transporter": {"system": "XC transporter", "conditions": "cited from earlier work"}, "[5]": {"conditions": "humans; cited from earlier work"}, "system XC−": {"system": "system XC−", "conditions": "cystine added to brain slices; cited from earlier work"}, "mGluR5 [6]": {"molecular_target": "T1, mGluR5 (Rattus norvegicus, UniProt P31424)", "T1 construct": "from tissue; host or cells: brain of living Sprague-Dawley rats (nucleus accumbens for CHPG microinjection; systemic dosing for MTEP, MPEP, Fenobam)", "T1 sequence (P31424 21-1203)": "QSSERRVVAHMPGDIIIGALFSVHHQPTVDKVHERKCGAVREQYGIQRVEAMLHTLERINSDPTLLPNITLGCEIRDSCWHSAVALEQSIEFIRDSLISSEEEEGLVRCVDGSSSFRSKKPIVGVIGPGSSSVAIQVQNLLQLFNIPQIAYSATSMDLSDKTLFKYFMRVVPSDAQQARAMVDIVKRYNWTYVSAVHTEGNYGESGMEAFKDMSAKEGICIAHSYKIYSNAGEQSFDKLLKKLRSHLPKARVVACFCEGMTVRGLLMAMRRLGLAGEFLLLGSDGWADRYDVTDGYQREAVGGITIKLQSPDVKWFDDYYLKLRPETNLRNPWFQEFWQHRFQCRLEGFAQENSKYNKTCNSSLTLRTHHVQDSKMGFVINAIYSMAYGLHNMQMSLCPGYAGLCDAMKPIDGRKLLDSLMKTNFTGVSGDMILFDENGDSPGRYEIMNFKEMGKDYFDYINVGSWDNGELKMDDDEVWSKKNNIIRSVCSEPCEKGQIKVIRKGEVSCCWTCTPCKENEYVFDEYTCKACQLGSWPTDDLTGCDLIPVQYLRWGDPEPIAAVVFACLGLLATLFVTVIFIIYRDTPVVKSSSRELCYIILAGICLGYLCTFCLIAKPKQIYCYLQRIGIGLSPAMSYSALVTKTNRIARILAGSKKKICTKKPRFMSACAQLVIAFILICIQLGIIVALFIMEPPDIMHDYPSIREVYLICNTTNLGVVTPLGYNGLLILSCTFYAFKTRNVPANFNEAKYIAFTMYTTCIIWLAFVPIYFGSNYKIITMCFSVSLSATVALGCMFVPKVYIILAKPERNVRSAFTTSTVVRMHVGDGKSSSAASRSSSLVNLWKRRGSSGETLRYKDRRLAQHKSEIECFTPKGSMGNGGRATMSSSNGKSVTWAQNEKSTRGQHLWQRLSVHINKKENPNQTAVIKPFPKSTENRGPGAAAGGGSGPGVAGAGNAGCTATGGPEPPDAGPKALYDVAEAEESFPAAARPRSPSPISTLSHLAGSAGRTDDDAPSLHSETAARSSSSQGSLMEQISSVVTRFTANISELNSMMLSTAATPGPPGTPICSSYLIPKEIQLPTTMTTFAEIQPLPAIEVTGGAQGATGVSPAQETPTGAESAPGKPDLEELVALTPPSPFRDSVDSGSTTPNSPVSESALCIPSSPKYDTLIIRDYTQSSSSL", "assay": "Cocaine relapse, chronic NAC or saline followed by acute MPEP (FIG. 3)", "type": "in vivo", "method": "Data were analyzed by a two-way ANOVA interaction F(1,20)=7.17, p=0.015; *p<0.05 comparing saline to MPEP.\nTowards this end, the effects of chronic NAC followed by acute administration of mGluR5 modulator (MPEP) on relapse in the rat model were examined.\n(§1) All experiments were conducted in accordance with the US National Institutes of Health guidelines for the care and use of laboratory animals, and all procedures were approved by the Institutional Animal Care and Use Committee at the Medical University of South Carolina. One week after arrival, male Sprague-Dawley rats (250 g) were anesthetized with ketamine HCl (87.5 mg kg^−1 Ketaset, Fort Dodge Animal Health) and xylazine (5 mg kg^−1 Rompum, Bayer) and implanted with intravenous catheters. The catheters were flushed daily with cefazolin (0.2 ml of a 0.1 g/ml solution) and heparin (0.2 ml of 100 units) to prevent infection and maintain catheter patency. Rats were allowed to recover for a week before behavioral training (Baker et al. Nat. Neurosci 6:743-749, 2003).\nRats were trained to self-administer cocaine in a standard operant chamber with two retractable levers. The self-administration regimen consisted of 10d of self-administration at >10 infusions per session. […] Cocaine self-administering rats were often paired with yoked saline controls. […]"}, "mGluR5 [7]": {"molecular_target": "T1, mGluR5", "assay": "Cocaine+cue induced reinstatement, low-dose mGluR5 antagonists in rats given N-acetylcysteine after extinction (FIG. 6)", "type": "in vivo", "conditions": "MPEP 1.0 mg/kg/ip or Fenobam 1.75 mg/kg/ip", "method": "Top, treatment protocol for cocaine, N-acetylcysteine, and mGluR5 antagonists.\nRats were injected with low doses of MPEP (1.0 mg/kg/ip) or Fenobam (1.75 mg/kg/ip) (FIG. 6), both systemically active and selective mGluR5 receptor antagonists (Carroll, 2008; Montana et al., 2009).\nas §1\nRats were trained to self-administer cocaine in a standard operant chamber with two retractable levers. The self-administration regimen consisted of 10d of self-administration at >10 infusions per session. […] Cocaine self-administering rats were often paired with yoked saline controls. Extinction procedures began 24 h after the rat met the acquisition criterion and lasted for at least 3 weeks. Lever presses were inconsequential throughout the extinction training"}, "mGluR5 [8]": {"molecular_target": "T1, mGluR5", "assay": "Cue-induced cocaine relapse (active lever presses), CHPG microinjected into nucleus accumbens (FIG. 1)", "type": "in vivo, rats", "method": "Relapse was induced by presenting the animal with a tone and light compound cue that was previously associated with cocaine delivery during the self-administration training. […] Data were analyzed using one-way ANOVA (2,14)=5.20, p=0.021; *p<0.05 compared to extinction, +p<0.05 comparing cue+aCSF (artificial cerebrospinal fluid control injection).\nas §1\nRats were trained to self-administer cocaine in a standard operant chamber with two retractable levers. The self-administration regimen consisted of 10d of self-administration at >10 infusions per session. […]"}, "mGluR2/3 [9]": {"system": "mGluR2/3", "conditions": "cited from earlier work; for PFC glutamate levels: infusion/perfusion into PFC, microdialysis"}, "mGluR2/3 receptors [10]": {"system": "mGluR2/3 receptors", "conditions": "perfusion into the accumbens, in vivo microdialysis; cited from earlier work"}, "mGluR2/3 receptors [11]": {"system": "mGluR2/3 receptors", "conditions": "bath application, accumbens slices; cited from earlier work"}, "[12]": {"conditions": "rats given N-acetylcysteine after extinction training"}},
  "note": "Entries after “also recorded” stand apart in the source; their conditions may differ. Where two headings read alike, the source gives them in different places.",
  "data": [
    {"smiles": "CC(N)(C(=O)O)c1ccc(P(=O)(O)O)cc1", "note": "(stereo not drawn) [MPPG, α-methyl-4-phosphonophenylglycine]", "values": [
      {"measurement": "basal dopamine levels", "setting": "mGluR2/3 [1]", "value": "increase"}
    ]},
    {"smiles": "O=C(O)CCC(CP(=O)(O)O)C(=O)O", "note": "(centres unmarked) [2-PMPA, 2-(phosphonomethyl)-pentanedioic acid]", "values": [
      {"measurement": "basal dopamine levels", "setting": "mGluR2/3 [1]", "value": "reduce"}
    ]},
    {"smiles": "CC(=O)N[C@@H](CS)C(=O)O", "note": "[NAC, N-acetylcysteine]", "values": [
      {"measurement": "peak concentration", "setting": "[2]; 600 mg i.v. dose", "value": 300, "unit": "µM"},
      {"measurement": "peak NAC plasma concentration", "setting": "[2]; humans, 400 mg oral dose", "value": "10 to 17", "unit": "µM"},
      {"measurement": "peak NAC plasma concentration", "setting": "[2]; humans, 600 mg oral dose", "value": 16, "unit": "µM"},
      {"measurement": "time of peak NAC plasma concentration after administration", "setting": "[2]; humans, 400 or 600 mg oral dose", "value": "one"},
      {"measurement": "half-life", "setting": "[2]; oral NAC", "value": 6.25, "unit": "h"},
      {"measurement": "oral bioavailability", "setting": "[2]; oral NAC", "value": "4-10%"},
      {"measurement": "time to peak plasma concentration following ingestion", "setting": "[2]; oral NAC", "value": "1 to 2", "unit": "h"},
      {"measurement": "side effects", "setting": "[3]; clinical use", "value": "minimal and mostly limited to gastrointestinal discomfort; also recorded: without any noticeable side effects"},
      {"measurement": "toxicity", "setting": "[3]; compared with cystine and cysteine", "value": "less toxic"},
      {"measurement": "solubility", "setting": "[4]", "value": "more soluble"},
      {"measurement": "extinction responding", "setting": "XC transporter; NAC for 2 weeks during extinction from heroin self-administration", "value": "reduces extinction responding"},
      {"measurement": "reinstatement", "setting": "XC transporter; NAC for 2 weeks during extinction from heroin self-administration, up to one month after last injection", "value": "prevents reinstatement"},
      {"measurement": "extinction responding", "setting": "XC transporter; NAC treatment during self-administration, after chronic cocaine", "value": "reduces extinction responding"},
      {"measurement": "extracellular glutamate levels in the accumbens", "setting": "XC transporter; after chronic cocaine", "value": "normalizes"},
      {"measurement": "relapse to drug seeking", "setting": "XC transporter; animal models of drug addiction", "value": "inhibit relapse to cocaine and heroin; also recorded: prevents relapse to drug seeking"},
      {"measurement": "protection against relapse", "setting": "XC transporter; chronic NAC during cocaine self-administration or heroin extinction, several weeks after last NAC injection", "value": "enduring protection against relapse"},
      {"measurement": "cocaine, nicotine and marijuana use", "setting": "[5]", "value": "reduces but does not abolish"},
      {"measurement": "compulsive gambling behavior", "setting": "[5]", "value": "reduce"},
      {"measurement": "desire for cocaine use", "setting": "[5]", "value": "reduce"},
      {"measurement": "marijuana abuse", "setting": "[5]", "value": "reduce"},
      {"measurement": "number of cigarettes smoked", "setting": "[5]", "value": "reduce"}
    ]},
    {"smiles": "N[C@@H](CSSC[C@H](N)C(=O)O)C(=O)O", "note": "[cystine]", "values": [
      {"measurement": "solubility", "setting": "[4]", "value": "very limited solubility"},
      {"measurement": "extracellular glutamate levels", "setting": "system XC−", "value": "increases"}
    ]},
    {"smiles": "N[C@H](C(=O)O)C1[C@@H](C(=O)O)[C@@H]1C(=O)O", "note": "(stereo partly drawn) [DCG-4, (2S,1′R,2′R,3′R)-2-(2,3-dicarboxycyclopropyl)glycine]", "values": [
      {"measurement": "basal dopamine levels", "setting": "mGluR2/3 [1]", "value": "reduce"}
    ]},
    {"smiles": "Cc1cccc(C#Cc2ccccc2)n1", "note": "[MPEP, 2-methyl-6-(phenylethynyl)pyridine]", "values": [
      {"measurement": "lever pressing (measure of relapse)", "setting": "mGluR5 [6]; acute MPEP in animals treated chronically with NAC", "value": "reduced cocaine relapse; also recorded: reduced lever pressing"},
      {"measurement": "lever pressing (measure of relapse)", "setting": "mGluR5 [6]; acute MPEP in animals treated chronically with saline", "value": "without effect and not"},
      {"measurement": "relapse to cocaine seeking (lever pressing)", "setting": "mGluR5 [7]; [12]", "value": "significantly reduced lever pressing; also recorded: inhibit relapse"},
      {"measurement": "relapse to cocaine seeking (lever pressing)", "setting": "mGluR5 [7]; vehicle treated rats", "value": "not"}
    ]},
    {"smiles": "N[C@@]1(C(=O)O)CO[C@H]2[C@H](C(=O)O)[C@H]21", "note": "[LY379268]", "values": [
      {"measurement": "basal dopamine levels", "setting": "mGluR2/3 [1]", "value": "reduce"}
    ]},
    {"smiles": "NC(C(=O)O)c1cc(O)ccc1Cl", "note": "(centres unmarked) [CHPG]", "values": [
      {"measurement": "relapse induced by agonist alone", "setting": "mGluR5 [8]; CHPG alone, without cue", "value": "did not induce relapse"},
      {"measurement": "cue-induced relapse (active lever presses)", "setting": "mGluR5 [8]; CHPG into nucleus accumbens plus tone and light cue, rats withdrawn 3-5 weeks after cocaine self-administration", "value": "dose-dependant increase"}
    ]},
    {"smiles": "N[C@]1(C(=O)O)[C@H]2[C@@H](C[C@H]1OCc1ccc(Cl)c(Cl)c1)[C@]2(F)C(=O)O", "note": "[MGS0039]", "values": [
      {"measurement": "basal dopamine levels", "setting": "mGluR2/3 [1]", "value": "increase"}
    ]},
    {"smiles": "N[C@@]1(C(=O)O)CN[C@@H](C(=O)O)C1", "note": "[APDC, (2R,4R)-4-aminopyrrolidine-2,4-dycarboxylate]", "values": [
      {"measurement": "PFC glutamate levels", "setting": "mGluR2/3 [9]", "value": "without effect"},
      {"measurement": "extracellular glutamate in the accumbens", "setting": "mGluR2/3 receptors [10]", "value": "reduced extracellular glutamate levels"}
    ]},
    {"smiles": "N[C@H](C(=O)O)[C@H]1C[C@@H]1C(=O)O", "note": "[L-CCG1, (2S,1′S,2′S)-2-(2′-carboxycyclopropyl)glycine]", "values": [
      {"measurement": "mEPSC amplitude", "setting": "mGluR2/3 receptors [11]", "value": "without affecting"},
      {"measurement": "mEPSC frequency", "setting": "mGluR2/3 receptors [11]", "value": "reduced"},
      {"measurement": "paired pulse ratios", "setting": "mGluR2/3 receptors [11]", "value": "increased"}
    ]},
    {"smiles": "N[C@](CC1c2ccccc2Oc2ccccc21)(C(=O)O)[C@H]1C[C@@H]1C(=O)O", "note": "[LY341495]", "values": [
      {"measurement": "glutamate levels in subcortical regions (nucleus accumbens and VTA)", "setting": "mGluR2/3 [9]; infusion in the prefrontal cortex", "value": "increased"},
      {"measurement": "PFC glutamate levels", "setting": "mGluR2/3 [9]", "value": "increase"},
      {"measurement": "extracellular glutamate in the accumbens", "setting": "mGluR2/3 receptors [10]", "value": "increased glutamate release"}
    ]},
    {"smiles": "CN1CC(=O)N=C1NC(=O)Nc1cccc(Cl)c1", "note": "[Fenobam, 1-(3-chlorophenyl)-3-(3-methyl-5-oxo-4H-imidazol-2-yl)urea]", "values": [
      {"measurement": "relapse to cocaine seeking (lever pressing)", "setting": "mGluR5 [7]; [12]", "value": "significantly reduced lever pressing; also recorded: inhibit relapse"},
      {"measurement": "relapse to cocaine seeking (lever pressing)", "setting": "mGluR5 [7]; vehicle treated rats", "value": "not"}
    ]}
  ]
}
